From PMC12117170

Assay: Intramolecular Cu-catalysed sydnonimine-alkyne click-and-release (forms 1,4-disubstituted pyrazole, releases CO2 and pyrenylmethyl urea/isocyanate): CuSO4 0.2 eq, bathophenanthroline disulfonate 0.4 eq, Na ascorbate 3 eq, triethanolamine 2 eq, 16 h; rGO filtration and aqueous work-up
Conditions: DMSO/H2O 1:1, 35.0 mM, 37.0 °C

Compound: O=C1CCCCCCCNC(=O)c2cccc(c2)-n2cc(cn2)CN1 [S3 -> CyP3]
- ring closure, isolated yield (from C#CCNC(=O)CCCCCCCNC(=O)c1cccc(-[n+]2cc([N-]C(=O)NCc3ccc4ccc5cccc6ccc3c4c56)on2)c1, 18-membered ring): 85%

Compound: COC(=O)[C@@H]1CCCCNC(=O)c2cccc(c2)-n2cc(cn2)CCCC(=O)N1 [hex-5-ynoyl-Lys(Nε-3-(sydnonimine-pyrene)benzoyl)-OMe]
- ring closure, isolated yield (from C#CCCCC(=O)N[C@@H](CCCCNC(=O)c1cccc(-[n+]2cc([N-]C(=O)NCc3ccc4ccc5cccc6ccc3c4c56)on2)c1)C(=O)OC, 18-membered ring): 76%

Compound: O=C1CCCCCCCCCCNC(=O)c2cccc(c2)-n2cc(cn2)CNC(=O)CCCCN1 [S6 -> CyP6]
- ring closure, isolated yield (from C#CCNC(=O)CCCCNC(=O)CCCCCCCCCCNC(=O)c1cccc(-[n+]2cc([N-]C(=O)NCc3ccc4ccc5cccc6ccc3c4c56)on2)c1, 27-membered ring): 78%

Compound: C#CCNC(=O)CNC(=O)c1cccc(-[n+]2cc([N-]C(=O)NCc3ccc4ccc5cccc6ccc3c4c56)on2)c1 [S1 -> CyP1]
- ring closure, isolated yield (the molecule shown is the open-chain precursor, 12-membered ring): 0%

Compound: CC(C)C[C@@H]1NC(=O)[C@H](Cc2ccccc2)NC(=O)c2cccc(c2)-n2cc(cn2)CNC1=O [3-(sydnonimine-pyrene)benzoyl-Phe-Leu-NH-propargyl]
- ring closure, isolated yield (from C#CCNC(=O)[C@H](CC(C)C)NC(=O)[C@H](Cc1ccccc1)NC(=O)c1cccc(-[n+]2cc([N-]C(=O)NCc3ccc4ccc5cccc6ccc3c4c56)on2)c1, 15-membered ring): 63%

Compound: O=C1CCc2cnn(c2)-c2cccc(c2)C(=O)Nc2ccc(cc2)Oc2cccc(c2)Oc2ccc(cc2)N1 [S8 -> CyP8]
- ring closure, isolated yield (from C#CCCC(=O)Nc1ccc(Oc2cccc(Oc3ccc(NC(=O)c4cccc(-[n+]5cc([N-]C(=O)NCc6ccc7ccc8cccc9ccc6c7c89)on5)c4)cc3)c2)cc1, 25-membered ring): 72%

Compound: O=C1CCCCCCCCCCNC(=O)c2cccc(c2)-n2cc(cn2)CN1 [S4 -> CyP4]
- ring closure, isolated yield (from C#CCNC(=O)CCCCCCCCCCNC(=O)c1cccc(-[n+]2cc([N-]C(=O)NCc3ccc4ccc5cccc6ccc3c4c56)on2)c1, 21-membered ring): 65%

Compound: O=C1NCCOCCOCCOCc2cnn(c2)-c2cccc1c2 [S7 -> CyP7 (50 C)]
- ring closure, isolated yield (from C#CCOCCOCCOCCNC(=O)c1cccc(-[n+]2cc([N-]C(=O)NCc3ccc4ccc5cccc6ccc3c4c56)on2)c1, 18-membered ring): 81%

Compound: CC(C)C[C@@H]1NC(=O)[C@@H]2CCCN2Cc2cnn(c2)-c2cccc(c2)C(=O)NCCNC(=O)CNC1=O
- ring closure, isolated yield (from C#CCN1CCC[C@H]1C(=O)N[C@@H](CC(C)C)C(=O)NCC(=O)NCCNC(=O)c1cccc(-[n+]2cc([N-]C(=O)NCc3ccc4ccc5cccc6ccc3c4c56)on2)c1, 21-membered ring): 79%

Compound: O=C1CCCCNC(=O)c2cccc(c2)-n2cc(cn2)CN1 [S2 -> CyP2]
- ring closure, isolated yield (from C#CCNC(=O)CCCCNC(=O)c1cccc(-[n+]2cc([N-]C(=O)NCc3ccc4ccc5cccc6ccc3c4c56)on2)c1, 15-membered ring): 75%

Compound: CC(C)C[C@@H]1NC(=O)c2cccc(c2)-n2cc(cn2)CNC(=O)[C@H](C)NC1=O [3-(sydnonimine-pyrene)benzoyl-Leu-Ala-NH-propargyl]
- ring closure, isolated yield (from C#CCNC(=O)[C@H](C)NC(=O)[C@H](CC(C)C)NC(=O)c1cccc(-[n+]2cc([N-]C(=O)NCc3ccc4ccc5cccc6ccc3c4c56)on2)c1, 15-membered ring): 68%

Compound: O=C1CNC(=O)[C@H](Cc2c[nH]c3ccccc23)NC(=O)c2cccc(c2)-n2cc(cn2)CN1 [3-(sydnonimine-pyrene)benzoyl-Trp-Gly-NH-propargyl]
- ring closure, isolated yield (from C#CCNC(=O)CNC(=O)[C@H](Cc1c[nH]c2ccccc12)NC(=O)c1cccc(-[n+]2cc([N-]C(=O)NCc3ccc4ccc5cccc6ccc3c4c56)on2)c1, 15-membered ring): 75%

Compound: O=C1CCCCCCCCCCNC(=O)c2cccc(c2)-n2cc(cn2)CNC(=O)CN1 [S5 -> CyP5]
- ring closure, isolated yield (from C#CCNC(=O)CNC(=O)CCCCCCCCCCNC(=O)c1cccc(-[n+]2cc([N-]C(=O)NCc3ccc4ccc5cccc6ccc3c4c56)on2)c1, 24-membered ring): 68%
